Assay results: PMC10380194, “Conferring High IAA Productivity on Low-IAA-Producing Organisms with PonAAS2, an Aromatic Aldehyde Synthase of a Galling Sawfly, and Identification of Its Inhibitor” (Insects, 2023)

How the values were obtained:
PonAAS1 = molecular target: T1, PonAAS1; experiment: enzyme inhibition of 5-HTrp→serotonin conversion, dose-response; assay type: biochemical, Pontania sp.
T1 construct: recombinant, fusion protein with trigger factor (pCOLD TF)

PonAAS2 = molecular target: T2, PonAAS2; experiment: enzyme inhibition of Trp→IAAld conversion, Lineweaver-Burk kinetics (IC50 […]); assay type: biochemical, Pontania sp.
T2 construct: recombinant, fusion protein with trigger factor (pCOLD TF)

- IC50 (PonAAS1): ~20 µM
- Ki (PonAAS2): 0.2 µM
Compound: Oc1ccccc1-c1nc(-c2ccc3c(c2)CCO3)n[nH]1 [HTS10550, 2-[3-(2,3-dihydro-1-benzofuran-5-yl)-1H-1,2,4-triazol-5-yl]phenol]
